# Test results as given in patent US20250206773A1, “FORMS AND COMPOSITIONS OF SODIUM CHENODEOXYCHOLATE” (Syntis Bio, Inc., priority 2022, published 2025).
# Where two headings read alike, the source gives them in different places.
# Experiments:
# [1] = format: physicochemical
# Protocol: HPLC analysis was carried out on an Agilent 1260 Infinity chromatograph, using a Hichrom C18 column 100×4.6 mm, 3.5 m, at 40° C. Method details were as follows:
# Around 10 mg of NaCDC Form B was weighed into clear HPLC vials and the selected solvents (500 μL) were added to the vials. Experiments ST07, 09, 11, 13, 15, 17, 19 and 21 were kept stirring for 24 h at 30° C. and 60° C., while samples were taken after 4 h and 24 h for HPLC analysis. Subsequently, the same experiments were evaporated at 30° C. for 24 h under reduced pressure (21-22 mbar), and the solids were evaluated by HPLC and XRPD. Separately, the solutions and slurries from experiments ST10, 12, 14, 16, 18, 20 and 22 were stirred for 24 h at 30° C. and 60° C. (no samples were taken) and evaporated at 60° C. for 24 h under reduced pressure (20-21 mbar). The recovered materials were sampled for HPLC and XRPD analyses.
# [2] = Heating of solid at 315° C. / 360° C., then XRPD and HPLC; format: physicochemical
# Protocol: Based on the results obtained from the TG/DSC analysis, a sample of NaCDC Form B was heated at 315° C. and another sample at 360° C. After heating, the samples were cooled to room temperature and analyzed by XRPD (FIG. 16). […] The material obtained after heating a sample at 360° C. was amorphous.
# [3] = Polymorph screening: vapor diffusion onto solids; format: physicochemical
# Protocol: Around 20 mg of NaCDC Form B were weighed into 1.6 mL HPLC vials. Each of the aforementioned vials was inserted individually into 40 mL vessels containing initially 0.5 mL of the corresponding solvent. The vessels were isolated from light and atmosphere and allowed to stand for 12 days, in a closed cabinet at 25° C. or in an oven at 50° C. After the experimental time, the majority of the samples remained solids/wet solids (experiments VDS02-12), which were harvested and analyzed by XRPD. […] All solids were analyzed by XRPD, and depending on the results obtained, some experiments were also analyzed by HPLC and TG/DSC.
# [4] = Polymorph screening: slurry with sonication; format: physicochemical; settings: sonicated 15 minutes then 5° C. for 30 minutes, 6 cycles
# Protocol: Around 15 mg of NaCDC Form B was weighed into HPLC vials and 0.4 mL of corresponding solvents were added at RT. The slurries were sonicated for 15 minutes and then left to cool at 5° C. for 30 minutes—this cycle was repeated 6 times. At the end of the sixth cycle, all experiments were air-dried on filter paper and the recovered solids were analyzed by XRPD. Based on the XRPD data, some experiments were analyzed by HPLC.
# [5] = format: physicochemical; remark: listed apart in the source
# Protocol: In-process stability of NaCDC Form B was evaluated under two conditions at reflux, as described in Table 1 below.
# [6] = Polymorph screening: solvent drop grinding; format: physicochemical; settings: grinding 10 min. at RT
# Protocol: Around 20 mg of NaCDC Form B was ground together with 10 μL aliquots of the corresponding solvent for 10 minutes at RT using an agate mortar with pestle. When total evaporation of the solvent was observed, another aliquot of 10 μL solvent was added and this procedure was repeated until experiment completion time. All solids were analyzed by XRPD. For the experiments where phase transformation was observed via XRPD, additional analyses of TG/DSC and/or HPLC were performed.
# [7] = ST13: Methanol, solution, 60° C.
# [8] = ST17: n-Heptane, slurry, 60° C.
# [9] = n-BuOH/water (6/1), azeotropic reflux for 24 h
# [10] = n-BuOH/water (6/1), azeotropic reflux
structure (smiles),measurement,setting,value
"C[C@H](CCC(=O)[O-])[C@H]1CC[C@H]2[C@@H]3[C@H](O)C[C@@H]4C[C@H](O)CC[C@]4(C)[C@H]3CC[C@]12C.[Na+] [Form B, sodium chenodeoxycholate]",HPLC purities throughout the stability tests,[1],≥ 86.1%
same,form stability in slurry experiments (XRPD),[1],stable
same,stability in solution and/or slurry,[1],remained stable
same,HPLC (%) at 212 nm (after evap.),"[1]; ST07: Water solution RT 24 h, evaporated at 30° C. 24 h",97.8%
same,XRPD (after evap.),"[1]; ST07: Water solution RT, evaporated at 30° C.",Am.
same,HPLC (%) at 212 nm (before evap.) 4 h,"[1]; ST07: Water, solution, RT",100.0%
same,HPLC (%) at 212 nm (before evap.) 24 h,"[1]; ST07: Water, solution, RT",96.2%
same,HPLC (%) at 212 nm (after evap.),"[1]; ST08: Water solution RT 24 h, evaporated at 60° C. 24 h, listed as NaCDC Form B",84.6%
same,HPLC (%) at 212 nm (after evap.),"[1]; ST08: Water solution RT 24 h, evaporated at 60° C. 24 h, listed as starting material",around 84.5%
same,XRPD (after evap.),"[1]; ST08: Water solution RT, evaporated at 60° C.",Am.
same,HPLC (%) at 212 nm (after evap.),"[1]; ST09: Water solution 60° C. 24 h, evaporated at 30° C. 24 h",95.7%
same,XRPD (after evap.),"[1]; ST09: Water solution 60° C., evaporated at 30° C.",Am.
same,HPLC (%) at 212 nm (before evap.) 4 h,"[1]; ST09: Water, solution, 60° C.",100.0%
same,HPLC (%) at 212 nm (before evap.) 24 h,"[1]; ST09: Water, solution, 60° C.",96.6%
same,HPLC (%) at 212 nm (after evap.),"[1]; ST10: Water solution 60° C. 24 h, evaporated at 60° C. 24 h",90.0%
same,XRPD (after evap.),"[1]; ST10: Water solution 60° C., evaporated at 60° C.",Am.
same,HPLC (%) at 212 nm (after evap.),"[1]; ST11: Methanol solution RT 24 h, evaporated at 30° C. 24 h",87.1%
same,XRPD (after evap.),"[1]; ST11: Methanol solution RT, evaporated at 30° C.",Am.
same,HPLC (%) at 212 nm (before evap.) 4 h,"[1]; ST11: Methanol, solution, RT",91.4%
same,HPLC (%) at 212 nm (before evap.) 24 h,"[1]; ST11: Methanol, solution, RT",93.5%
same,HPLC (%) at 212 nm (after evap.),"[1]; ST12: Methanol solution RT 24 h, evaporated at 60° C. 24 h",90.5%
same,XRPD (after evap.),"[1]; ST12: Methanol solution RT, evaporated at 60° C.",Am.
same,HPLC (%) at 212 nm (after evap.),"[1]; ST13: Methanol solution 60° C. 24 h, evaporated at 30° C. 24 h",no peak~
same,XRPD (after evap.),"[1]; ST13: Methanol solution 60° C., evaporated at 30° C.",Am.
same,HPLC (%) at 212 nm (before evap.) 4 h,[1]; [7],94.8%
same,HPLC (%) at 212 nm (before evap.) 24 h,[1]; [7],90.3%
same,HPLC (%) at 212 nm (after evap.),"[1]; ST14: Methanol solution 60° C. 24 h, evaporated at 60° C. 24 h",92.5%
same,XRPD (after evap.),"[1]; ST14: Methanol solution 60° C., evaporated at 60° C.",Am.
same,HPLC (%) at 212 nm (after evap.),"[1]; ST15: n-Heptane slurry RT 24 h, evaporated at 30° C. 24 h",no peak~
same,HPLC (%) at 212 nm (before evap.) 4 h,"[1]; ST15: n-Heptane, slurry, RT",89.9%
same,HPLC (%) at 212 nm (before evap.) 24 h,"[1]; ST15: n-Heptane, slurry, RT",100.0%
same,HPLC (%) at 212 nm (after evap.),"[1]; ST16: n-Heptane slurry RT 24 h, evaporated at 60° C. 24 h, listed as NaCDC Form B",84.5%
same,HPLC (%) at 212 nm (after evap.),"[1]; ST16: n-Heptane slurry RT 24 h, evaporated at 60° C. 24 h, listed as starting material",around 84.5%
same,HPLC (%) at 212 nm (after evap.),"[1]; ST17: n-Heptane slurry 60° C. 24 h, evaporated at 30° C. 24 h",93.6%
same,HPLC (%) at 212 nm (before evap.) 4 h,[1]; [8],91.5%
same,HPLC (%) at 212 nm (before evap.) 24 h,[1]; [8],91.4%
same,HPLC (%) at 212 nm (after evap.),"[1]; ST18: n-Heptane slurry 60° C. 24 h, evaporated at 60° C. 24 h",90.4%
same,HPLC (%) at 212 nm (after evap.),"[1]; ST19: MEK slurry RT 24 h, evaporated at 30° C. 24 h",74.1%
same,HPLC (%) at 212 nm (before evap.) 4 h,"[1]; ST19: MEK, slurry, RT",100.0%
same,HPLC (%) at 212 nm (before evap.) 24 h,"[1]; ST19: MEK, slurry, RT",97.7%
same,HPLC (%) at 212 nm (after evap.),"[1]; ST20: MEK slurry RT 24 h, evaporated at 60° C. 24 h",86.1%
same,HPLC (%) at 212 nm (after evap.),"[1]; ST21: MEK slurry 60° C. 24 h, evaporated at 30° C. 24 h",55.9%
same,HPLC (%) at 212 nm (before evap.) 4 h,"[1]; ST21: MEK, slurry, 60° C.",65.2%
same,HPLC (%) at 212 nm (before evap.) 24 h,"[1]; ST21: MEK, slurry, 60° C.",94.5%
same,HPLC (%) at 212 nm (after evap.),"[1]; ST22: MEK slurry 60° C. 24 h, evaporated at 60° C. 24 h",86.6%
same,XRPD after heating,[2]; heated at 315° C.,different diffractogram than the starting material
same,XRPD after heating,[2]; heated at 360° C.,amorphous
same,HPLC purity after heating,"[2]; sample heated at 315° C., cooled to room temperature",66.9%
same,HPLC purity (%) at 212 nm,"[3]; VDS01, Methanol (MeOH) vapor, 25° C., 12 days, fine suspension, evap. at 30° C., 21 mbar, overnight",89.99%
same,XRPD,"[3]; VDS03, Ethyl acetate (EtOAc) vapor, diffusion at 25° C. after 12 days","SM, P.O."
same,HPLC purity (%) at 212 nm,"[3]; VDS05, Ethanol (EtOH) vapor, diffusion at 50° C. after 12 days",92.11%
same,XRPD,"[3]; VDS06, 2-Propanol (2-PrOH) vapor, diffusion at 50° C. after 12 days","SM, P.O."
same,XRPD,"[3]; VDS08, Diisopropyl ether vapor, diffusion at 50° C. after 12 days","SM, P.O."
same,HPLC purity (%) at 212 nm,"[3]; VDS09, 2,2,2-Trifluoroethanol (TFE) vapor, diffusion at 50° C. after 12 days, slurry air-dried on filter paper",90.89%
same,XRPD,"[3]; VDS11, Acetonitrile (MeCN) vapor, diffusion at 50° C. after 12 days","SM, P.O."
same,HPLC purity (%) at 212 nm,"[3]; VDS12, Methyl ethyl ketone (MEK) vapor, diffusion at 50° C. after 12 days",93.65%
same,HPLC purity (%) at 212 nm,"[4]; SLS03, Ethyl acetate (EtOAc)",90.42%
same,HPLC purity (%) at 212 nm,"[4]; SLS08, EtOH:MeCN (1:1 v/v)",79.23%
same,HPLC purity (%) at 212 nm,"[4]; SLS09, EtOH:n-Heptane (1:1 v/v)",89.68%
same,HPLC Purity % CDC (t24),"[5]; n-BuOH, reflux for 24 h",99.9%
same,HPLC Purity % Cholic acid (t24),"[5]; n-BuOH, reflux for 24 h",0.05%
same,HPLC Purity % CDC (t0),"[5]; n-BuOH, reflux",99.9%
same,HPLC Purity % Cholic acid (t0),"[5]; n-BuOH, reflux",0.05%
same,HPLC Purity % CDC (t24),[5]; [9],99.92%
same,HPLC Purity % Cholic acid (t24),[5]; [9],0.05%
same,HPLC Purity % CDC (t0),[5]; [10],99.92%
same,HPLC Purity % Cholic acid (t0),[5]; [10],0.05%
same,HPLC purity (%) at 212 nm,"[6]; SDGR01, Ethanol (EtOH) 140 μL",83.36%
same,HPLC purity (%) at 212 nm,"[6]; SDGR02, 2-Propanol 80 μL",81.26%
same,HPLC purity (%) at 212 nm,"[6]; SDGR03, 2,2,2-Trifluoroethanol (TFE) 90 μL",90.87%
same,XRPD,"[6]; SDGR04, Diisopropyl ether 160 μL","SM, l.c."
same,HPLC purity (%) at 212 nm,"[6]; SDGR05, MeOH:EtOAc (1:1 v/v) 260 μL",82.04%
same,HPLC purity (%) at 212 nm,"[6]; SDGR06, MeOH:Acetone (1:1 v/v) 240 μL",85.56%
same,HPLC purity (%) at 212 nm,"[6]; SDGR07, EtOH:MeCN (1:1 v/v) 190 μL",86.54%
same,HPLC purity (%) at 212 nm,"[6]; SDGR08, EtOH:n-Heptane (1:1 v/v) 220 μL",90.36%
